Laboratory results reported in PMC4954055, “A Self‐Assembled Respiratory Chain that Catalyzes NADH Oxidation by Ubiquinone‐10 Cycling between Complex I and the Alternative Oxidase” (Angewandte Chemie (International Ed. in English), 2015).

Biological target: T1, alternative oxidase (AOX) (Trypanosoma brucei, UniProt Q26710)
T1 construct: single-subunit quinol oxidase reconstituted into proteoliposomes
Test: coupled NADH:O2 oxidoreduction in CI/Q10/AOX proteoliposomes
Assay type: biochemical
Conditions: complex I rate determining; Q10H2 formed in the membrane by complex I

T1 sequence (Q26710 25-329): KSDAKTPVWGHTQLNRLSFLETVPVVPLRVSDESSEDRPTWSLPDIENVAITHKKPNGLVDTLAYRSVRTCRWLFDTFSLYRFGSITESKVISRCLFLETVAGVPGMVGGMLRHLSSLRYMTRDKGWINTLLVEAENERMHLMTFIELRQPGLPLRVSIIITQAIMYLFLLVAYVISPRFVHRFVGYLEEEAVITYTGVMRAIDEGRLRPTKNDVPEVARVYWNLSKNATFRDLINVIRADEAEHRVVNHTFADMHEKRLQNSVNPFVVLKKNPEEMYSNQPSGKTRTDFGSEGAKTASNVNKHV

Compound: COc1c(O)c(C)c(C/C=C(\C)CC/C=C(\C)CC/C=C(\C)CC/C=C(\C)CC/C=C(\C)CC/C=C(\C)CC/C=C(\C)CC/C=C(\C)CC/C=C(\C)CCC=C(C)C)c(O)c1OC [Q10H2]
- coupled NADH:O2 oxidoreduction in CI/Q10/AOX proteoliposomes: AOX reoxidizes the Q10H2 and reduces O2 to H2O
